This is an account of results in ChEMBL document CHEMBL1201862, “PubChem BioAssay data set” (2004).

Common to all, as to assay: growth of human tumour cells (NCI), 48 h
Assay [1] concerns A498.
In assay [2] the test system is CAKI-1.
The test system of assay [3] is CCRF-CEM.
For assay [4], the system named is DU-145.
Assay [5] deals with HCT-116.
In assay [6] the test system is HCT-15.
The subject of assay [7] is IGROV-1.
For assay [8], the system named is K562.
For assay [9], the system named is M14.
Assay [10] relates to MDA-MB-231.
The test system of assay [11] is MDA-MB-435.
The test system of assay [12] is MDA-N.
The subject of assay [13] is NCI-H226.
The test system of assay [14] is OVCAR-8.
The subject of assay [15] is SNB-19.
In assay [16] the test system is T47D.
Assay [17] deals with U-251.
In assay [18] the test system is UACC-257.
Assay [19] has as its system UACC-62.

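Briefly, cells in 96-well plates were exposed to five compound concentrations for 48 h, and endpoints were estimated by linear interpolation. Here, GI50 denotes the concentration required for 50% inhibition of growth.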 The source made the active and inactive calls. No stated cut-off is given here; in the data, active = GI50 up to about 1.1 µM and inactive = higher.

As to `CN(C)CCCNc1c2c(nc3ccc(Cl)cc13)CCCC2`, the GI50 was 18 µM (inactive) in assay [1]; 23.3 µM (inactive) in [2]; 3.93 µM (inactive) in [3]; 13.9 µM (inactive) in [4]; 6.03 µM (inactive) in [5]; 13.3 µM in assay [6]. The GI50 is 12.7 µM (inactive) in assay [7]; 0.492 µM (active) in assay [8]; 13.8 µM (inactive) in [9]; 13.6 µM (inactive) in [10]; 14.9 µM (inactive) in assay [11]; 13.5 µM (inactive) in [12]. Further, the GI50 in [13] was 22.3 µM (inactive); in assay [14], 12.8 µM (inactive); in [15] it was 19.1 µM (inactive); in assay [16] it was 26.5 µM (inactive); in assay [17], 14.9 µM (inactive); in assay [18], 16.3 µM (inactive). Moreover, the GI50 in assay [19] is 16.9 µM (inactive).

With `OC(CC(O)(C(F)(F)F)C(F)(F)F)C(O)c1ccco1` (centres undefined), the GI50 is 0.22 µM (active) in assay [1]; > 10 µM (inactive) in assay [2]; > 10 µM (inactive) in [3]; > 10 µM (inactive) in assay [4]; > 10 µM (inactive) in assay [5]; more than 10 µM in [6]. For the same compound, the GI50 in [7], in assay [8], in assay [9], in assay [10], in assay [11] and in assay [12] was > 10 µM (inactive) each time. The GI50 in [13], in assay [14], in [15], in [16], in assay [17] and in assay [18] was > 10 µM (inactive) each time. Further, in assay [19], the GI50 is > 10 µM (inactive).

As to `Cc1c2ncccc2c(C)c2c1[nH]c1ccc(O)cc12`, the GI50 is 13.3 µM (inactive) in assay [1]; 3.32 µM (inactive) in [2]; 1.33 µM (inactive) in assay [3]; 7.23 µM (inactive) in [4]; 4.59 µM (inactive) in assay [5]; 3.39 µM in assay [6]. Further, the GI50 in assay [7] was 3.89 µM (inactive); in assay [8], 3.44 µM (inactive); in assay [9] it was 4.89 µM (inactive); in assay [10], 4.93 µM (inactive); in assay [11], 7.64 µM (inactive); in assay [12], 4.93 µM (inactive). The GI50 in assay [13] is 6.68 µM (inactive); in [14], 4.35 µM (inactive); in assay [15], 6.61 µM (inactive); in assay [16], 8.59 µM (inactive); in assay [17], 2.4 µM (inactive); in [18] it was 11.5 µM (inactive). In addition, the GI50 in assay [19] is 10.2 µM (inactive).

On to `S=C1c2cc(Cl)ccc2N=C(NC2CCCC2)C2CSCN12` (centres undefined), for which the GI50 in assay [1] was > 100 µM (inactive); in [2], > 100 µM (inactive); in assay [3], > 69.5 µM (inactive); in assay [4], > 100 µM (inactive); in assay [5] it was > 74.5 µM (inactive); in [6] it was more than 100 µM. For the same compound, the GI50 is > 100 µM (inactive) in assay [7]; > 68.7 µM (inactive) in assay [8]; > 78 µM (inactive) in [9]; > 100 µM (inactive) in [10]; > 91.8 µM (inactive) in assay [11]; 97.3 µM (inactive) in assay [12]. Further, the GI50 in assay [13] is > 100 µM (inactive); in assay [14], > 100 µM (inactive); in assay [15], > 100 µM (inactive); in assay [16] it was > 55 µM (inactive); in assay [17], > 100 µM (inactive); in assay [18], > 91.6 µM (inactive). Besides, the GI50 in assay [19] is > 92.9 µM (inactive).

As to `COC(=O)C1=CON2C3CC4CC(C3)CC(C4)C12C` (centres undefined), the GI50 in assay [1] is > 100 µM (inactive); in [2], > 100 µM (inactive); in assay [3], > 100 µM (inactive); in assay [4], > 100 µM (inactive); in assay [5] it was > 100 µM (inactive); in assay [6], more than 100 µM. Moreover, the GI50 in assay [7], in [8], in assay [9], in assay [10], in [11] and in assay [12] was > 100 µM (inactive) in each case. For the same compound, the GI50 in assay [13], in assay [14], in assay [15], in assay [16], in assay [17] and in assay [18] was > 100 µM (inactive) each time. Also, the GI50 in [19] was > 100 µM (inactive).

For `CC(C)C12CCC3(CCC4C(C)(C(=O)O)CCCC4(C)C3C1)C(CN)C2` (centres undefined), the GI50 in assay [1] was 28.8 µM (inactive); in assay [2] it was 35.4 µM (inactive); in [3], 0.388 µM (active); in assay [4] it was 38.6 µM (inactive); in assay [5], 17.3 µM (inactive); in assay [6], 31.9 µM. For the same compound, the GI50 in assay [7] is 53.2 µM (inactive); in assay [9], 30.4 µM (inactive); in [10], 58.7 µM (inactive); in assay [11], 37.7 µM (inactive); in assay [12] it was 28.4 µM (inactive); in assay [13], 34.2 µM (inactive). Besides, the GI50 in [14] was 30.7 µM (inactive); in [15], 39 µM (inactive); in assay [16] it was 55.2 µM (inactive); in assay [17], 31.4 µM (inactive); in assay [18], 40.1 µM (inactive); in [19], 32.4 µM (inactive).

As to `O=CC(O)C(O)C(O)C1CNC(=S)O1` (centres undefined), the GI50 is > 100 µM (inactive) in assay [1]; > 100 µM (inactive) in assay [2]; > 100 µM (inactive) in [3]; > 100 µM (inactive) in assay [4]; > 100 µM (inactive) in [5]; more than 100 µM in [6]. The GI50 in [7], in assay [8], in assay [9], in [10], in assay [11] and in [12] was > 100 µM (inactive) each time. In addition, the GI50 in assay [13], in assay [14], in assay [16], in [17], in assay [18] and in [19] was > 100 µM (inactive) each time.

In the case of `O=C(/C=C/c1ccc(O)c(O)c1)c1cc(O)cc(O)c1`, the GI50 in assay [1] is 18.9 µM (inactive); in assay [2] it was > 100 µM (inactive); in [3] it was 2 µM (inactive); in assay [4], 18.1 µM (inactive); in assay [5] it was 12.8 µM (inactive); in [6], 15.7 µM. The GI50 in [7] was 13.8 µM (inactive); in [9], 14 µM (inactive); in assay [10], 12.8 µM (inactive); in [11], 6.59 µM (inactive); in [12] it was 6 µM (inactive); in assay [13], 14.8 µM (inactive). The GI50 in assay [14] was 14.3 µM (inactive); in assay [15], 14.5 µM (inactive); in assay [16], 10.5 µM (inactive); in [17] it was 10.8 µM (inactive); in assay [18] it was 10.7 µM (inactive); in assay [19] it was 12.9 µM (inactive).
